Data: patent US20250074873A1, “COMPOUNDS” (Psylo Pty Ltd, priority 2021, published 2025)
Read-outs that look alike come from different tables or passages of the source.

Tests used:
Type in all cases: cell-based
5-HT2A receptor = target: T1, 5-HT2A receptor (Homo sapiens, UniProt P28223); test: FLIPR Ca2+ flux functional assay, 5-HT2A agonist activity
T1 construct: host or cells: HEK293
Protocol: (§1) Functional Assays 5-HT2A, 5-HT2B and 5-HT2C Receptors
(§2) Activity at 5-HT2A, 5-HT2B and 5-HT2C receptors was determined using a FLIPR Ca2+ flux assay at WuXi AppTec Co. Ltd. (Hong Kong) Discovery Biology Unit according to their standard protocols. Briefly, stably transfected cells expressing the receptor of interest (HEK293 for 5-HT2A and 5-HT2C; CHO-K1 for 5-HT2B) were grown and plated in a 384 well plate and incubated at 37° C. and 5% 002 overnight. A 250 mM stock solution of probenecid in FLIPR calcium assay buffer (10 mL) was freshly prepared and combined with a fluorescent dye (Fluo-4 Direct) to give a final assay concentration of 2.5 mM. Reference compounds were 4-fold serially diluted and the screening compounds were 3-fold serially diluted in 100% DMSO for 10 points using Agilent Bravo, and 750 nL was added to a 384 well compound plate using Echo along with 30 μL assay buffer. The fluorescent dye was then added to the assay plate along with assay buffer to a final volume of 40 μL. The cell plate was incubated for […] at 37° C. and 5% 002 and placed into the FLIPR Tetra along with the compound plate. 10 μL of references and compounds were then transferred from the compound plate into the cell plate and the fluorescent signal was read.

5-HT2B receptor = target: T2, 5-HT2B receptor (Homo sapiens, UniProt P41595); test: FLIPR Ca2+ flux functional assay, 5-HT2B agonist activity
T2 construct: host or cells: CHO-K1
T2 sequence (P41595 whole entry): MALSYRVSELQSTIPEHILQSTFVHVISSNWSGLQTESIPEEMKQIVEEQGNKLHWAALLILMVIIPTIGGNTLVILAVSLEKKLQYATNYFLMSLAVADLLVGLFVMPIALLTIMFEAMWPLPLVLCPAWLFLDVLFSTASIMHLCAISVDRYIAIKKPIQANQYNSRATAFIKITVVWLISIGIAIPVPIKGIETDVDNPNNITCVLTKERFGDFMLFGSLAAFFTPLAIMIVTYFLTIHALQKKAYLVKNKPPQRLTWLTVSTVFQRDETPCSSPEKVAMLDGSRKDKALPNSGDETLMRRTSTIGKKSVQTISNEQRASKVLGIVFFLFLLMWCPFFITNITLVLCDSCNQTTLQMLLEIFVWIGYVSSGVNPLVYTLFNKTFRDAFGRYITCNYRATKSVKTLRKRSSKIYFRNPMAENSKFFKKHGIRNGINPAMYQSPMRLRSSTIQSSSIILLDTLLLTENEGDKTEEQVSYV
Protocol: as §1, §2

5-HT2C receptor = target: T3, 5-HT2C receptor (Homo sapiens, UniProt P28335); test: FLIPR Ca2+ flux functional assay, 5-HT2C agonist activity
T3 construct: host or cells: HEK293
T3 sequence (P28335 33-458): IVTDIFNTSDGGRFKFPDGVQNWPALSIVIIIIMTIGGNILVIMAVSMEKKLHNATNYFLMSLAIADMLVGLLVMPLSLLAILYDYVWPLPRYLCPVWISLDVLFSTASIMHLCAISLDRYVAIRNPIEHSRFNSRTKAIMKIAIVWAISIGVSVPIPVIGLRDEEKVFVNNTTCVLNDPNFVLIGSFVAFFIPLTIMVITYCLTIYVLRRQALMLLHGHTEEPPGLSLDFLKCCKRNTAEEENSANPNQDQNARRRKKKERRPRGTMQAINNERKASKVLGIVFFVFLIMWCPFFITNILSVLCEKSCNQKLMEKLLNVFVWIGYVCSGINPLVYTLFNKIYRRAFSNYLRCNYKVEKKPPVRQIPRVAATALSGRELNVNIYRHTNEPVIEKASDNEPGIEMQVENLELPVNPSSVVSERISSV
Protocol: as §1, §2

[1] = agonist activity, Ca2+ flux, stably transfected HEK293 cells
[2] = agonist activity, Ca2+ flux, stably transfected CHO-K1 cells

T1 sequence (P28223 whole entry): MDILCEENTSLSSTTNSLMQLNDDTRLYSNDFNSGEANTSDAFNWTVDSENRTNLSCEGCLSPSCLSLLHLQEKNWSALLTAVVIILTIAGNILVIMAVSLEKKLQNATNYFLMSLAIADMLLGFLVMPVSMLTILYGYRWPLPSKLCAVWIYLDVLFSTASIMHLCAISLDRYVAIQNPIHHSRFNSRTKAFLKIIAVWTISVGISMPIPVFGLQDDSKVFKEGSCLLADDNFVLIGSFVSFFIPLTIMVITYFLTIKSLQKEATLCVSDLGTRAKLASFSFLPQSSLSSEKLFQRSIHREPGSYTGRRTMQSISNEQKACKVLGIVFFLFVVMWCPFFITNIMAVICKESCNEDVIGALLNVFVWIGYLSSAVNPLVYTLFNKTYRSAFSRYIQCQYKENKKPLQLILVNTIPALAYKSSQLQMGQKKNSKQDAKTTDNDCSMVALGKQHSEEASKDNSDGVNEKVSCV

| SMILES | EC50 (5-HT2A receptor) [nM] | Emax (5-HT2A receptor; [1]) [%] | EC50 (5-HT2B receptor) [nM] | Emax (5-HT2B receptor; [2]) [%] | EC50 (5-HT2C receptor) [nM] | Emax (5-HT2C receptor; [1]) [%] | EC50 (5-HT2A receptor; agonist activity, Ca2+ flux, stably transfected HEK293 cells, read-out: 5-HT2A EC50) [nM] | EC50 (5-HT2B receptor; agonist activity, Ca2+ flux, stably transfected CHO-K1 cells, read-out: 5-HT2B EC50) [nM] | EC50 (5-HT2C receptor; agonist activity, Ca2+ flux, stably transfected HEK293 cells, read-out: 5-HT2c EC50) [nM] |
| --- | --- | --- | --- | --- | --- | --- | --- | --- | --- |
| CN(C)CCc1c[nH]c2cccc(OC(F)(F)F)c12 [Compound P-4, N,N-dimethyl-2-(4-(trifluoromethoxy)-1H-indol-3-yl)ethan-1-amine] | 52.8 | 34.6 | > 10000 | -0.97 | 15.9 | 66.6 | – | – | – |
| CN(C)CCc1c[nH]c2ccc(OC(F)(F)F)cc12 [Compound P-5, N,N-dimethyl-2-(5-(trifluoromethoxy)-1H-indol-3-yl)ethan-1-amine] | 171 | 40.5 | > 10000 | -0.27 | 520 | 55.1 | – | – | – |
| CN(C)CCc1c[nH]c2ccc(C(F)(F)F)cc12 [Compound P-15, N,N-dimethyl-2-(5-(trifluoromethyl)-1H-indol-3-yl)ethan-1-amine] | 186 | 28.7 | > 10000 | 7.41 | 89.7 | 88.8 | – | – | – |
| CCC(C)N(C)CCc1c[nH]c2ccc(OC)cc12 (stereo not drawn) [Compound P-16, N-(2-(5-methoxy-1H-indol-3-yl)ethyl)-N-methylbutan-2-amine] | 36.9 | 58.5 | > 10000 | -1.2 | 553 | 59.5 | – | – | – |
| CCCN(CCc1c[nH]c2ccc(OC)cc12)C(C)C [Compound P-17, N-isopropyl-N-(2-(5-methoxy-1H-indol-3-yl)ethyl)propan-1-amine] | 13.8 | 89 | 138 | 69.2 | 185 | 82.1 | – | – | – |
| CCN(CCc1c[nH]c2ccc(OC)cc12)CC(C)C [Compound P-18, N-ethyl-N-(2-(5-methoxy-1H-indol-3-yl)ethyl)-2-methylpropan-1-amine] | 47.9 | 79.5 | 867 | 51.8 | 1130 | 68.9 | – | – | – |
| CCC(C)N(CC)CCc1c[nH]c2ccc(OC)cc12 (stereo not drawn) [Compound P-19, N-ethyl-N-(2-(5-methoxy-1H-indol-3-yl)ethyl)butan-2-amine] | 33.3 | 70.3 | 1400 | 44.5 | 933 | 76.8 | – | – | – |
| CCC(C)N(C)CCc1c[nH]c2ccccc12 (stereo not drawn) [Compound P-20, N-(2-(1H-indol-3-yl)ethyl)-N-methylbutan-2-amine] | 91.2 | 16.1 | > 10000 | 0.83 | 646 | 58.8 | – | – | – |
| CCC(C)N(CC)CCc1c[nH]c2ccccc12 (stereo not drawn) [Compound P-21, N-(2-(1H-indol-3-yl)ethyl)-N-ethylbutan-2-amine] | 148 | 71.5 | > 10000 | 37.2 | 974 | 61.5 | – | – | – |
| CCN(CCc1c[nH]c2ccccc12)CC(C)C [Compound P-22, N-(2-(1H-indol-3-yl)ethyl)-N-ethyl-2-methylpropan-1-amine] | 389 | 52.8 | 1140 | 28 | 960 | 58.4 | – | – | – |
| CCC(C)N(C)CCc1c[nH]c2cccc(OC)c12 (stereo not drawn) [Compound P-23, N-(2-(4-methoxy-1H-indol-3-yl)ethyl)-N-methylbutan-2-amine] | 124 | 50.3 | > 10000 | -0.21 | 465 | 21.7 | – | – | – |
| CCC(C)N(CC)CCc1c[nH]c2cccc(OC)c12 (stereo not drawn) [Compound P-24, N-ethyl-N-(2-(4-methoxy-1H-indol-3-yl)ethyl)butan-2-amine] | 70.2 | 77.7 | 444 | 52.6 | 964 | 68.6 | – | – | – |
| CCN(CCc1c[nH]c2cccc(OC)c12)C(C)C [Compound P-25, N-ethyl-N-(2-(4-methoxy-1H-indol-3-yl)ethyl)propan-2-amine] | 121 | 85.9 | 459 | 61.4 | 676 | 77.8 | – | – | – |
| CCCN(CCc1c[nH]c2cccc(OC)c12)C(C)C [Compound P-26, N-isopropyl-N-(2-(4-methoxy-1H-indol-3-yl)ethyl)propan-1-amine] | 36.5 | 81.6 | 103 | 96 | 106 | 87.1 | – | – | – |
| CCCN(C)CCc1c[nH]c2ccc(OC(F)(F)F)cc12 [Compound P-34, N-methyl-N-(2-(5-(trifluoromethoxy)-1H-indol-3-yl)ethyl)propan-1-amine] | 665 | 53.7 | > 10000 | 18.9 | 329 | 81.7 | – | – | – |
| Cc1cccc2[nH]cc(CCN(C)C(C)C)c12 [Compound P-42, N-methyl-N-(2-(4-methyl-1H-indol-3-yl)ethyl)propan-2-amine] | 39.6 | 94.7 | 814 | 41.4 | 48.6 | 91.2 | – | – | – |
| COc1cccc2[nH]cc(CCN(C)CC(C)C)c12 [Compound P-136, N-(2-(4-methoxy-1H-indol-3-yl)ethyl)-N,2-dimethylpropan-1-amine] | 91.5 | 100 | > 10000 | -1.63 | 261 | 78.5 | – | – | – |
| CCN(CCc1c[nH]c2cccc(OC)c12)CC(C)C [Compound P-137, N-ethyl-N-(2-(4-methoxy-1H-indol-3-yl)ethyl)-2-methylpropan-1-amine] | 85.6 | 95.8 | > 10000 | 19.4 | 138 | 96.2 | – | – | – |
| CCN(CCc1c[nH]c2cccc(O)c12)C(C)C [Compound P-138, 3-(2-(ethyl(isopropyl)amino)ethyl)-1H-indol-4-ol] | 19.9 | 105 | 322 | 53.5 | 862 | 83.3 | – | – | – |
| CCC(C)N(CC)CCc1c[nH]c2cccc(O)c12 (stereo not drawn) [Compound P-139, 3-(2-(sec-butyl(ethyl)amino)ethyl)-1H-indol-4-ol] | 54 | 107 | > 10000 | 15.7 | 1900 | 55.2 | – | – | – |
| CCN(CCc1c[nH]c2cccc(O)c12)CC(C)C [Compound P-140, 3-(2-(ethyl(isobutyl)amino)ethyl)-1H-indol-4-ol] | 27.7 | 97.5 | > 10000 | 17.5 | 992 | 95.4 | – | – | – |
| CCCN(CCc1c[nH]c2cccc(O)c12)C(C)C [Compound P-141, 3-(2-(isopropyl(propyl)amino)ethyl)-1H-indol-4-ol] | 13.8 | 105 | 330 | 62.2 | 422 | 92 | – | – | – |
| COc1ccc2[nH]cc(CCN(C)C3CC3)c2c1 [Compound P-162, N-(2-(5-methoxy-1H-indol-3-yl)ethyl)-N-methylcyclopropanamine] | 4.83 | 95.6 | ≥ 10000 | 12 | 10.6 | 89.2 | – | – | – |
| COc1ccc2[nH]cc(CCN(C)C3CCC3)c2c1 [Compound P-163, N-(2-(5-methoxy-1H-indol-3-yl)ethyl)-N-methylcyclobutanamine] | 25.4 | 90.5 | ≥ 10000 | 2.29 | 128 | 75.9 | – | – | – |
| COc1ccc2[nH]cc(CCN(C)C3COC3)c2c1 [Compound P-164, N-(2-(5-methoxy-1H-indol-3-yl)ethyl)-N-methyloxetan-3-amine] | – | 57.5 | – | 1.26 | – | 59.9 | 671 | ≥ 10000 | 6280 |
